# System: neutrophils activated by fMLP
# Assay: superoxide production from neutrophils activated by fMLP
# Format: cell-based
# Conditions: Neutrophil; concentration giving 50% inhibition of fMLP-induced superoxide production compared to control response; human peripheral blood neutrophils, cytochalasin B priming, adenosine deaminase present, cytochrome C reduction readout
# Protocol: This is evaluated by determining the compound profile in an assay where superoxide production was measured from neutrophils activated by fMLP. Neutrophils were isolated from human peripheral blood using dextran sedimentation followed by centrifugation through Ficoll-Hypaque solution. Any contaminating erythrocytes in the granulocyte pellet were removed by lysis with ice-cold distilled water. Superoxide production from the neutrophils was induced by fMLP in the presence of a priming concentration of cytochalasin B. Adenosine deaminase was included in the assay to remove any endogenously produced adenosine that might suppress superoxide production. The effect of the compound on the fMLP-induced response was monitored colorometrically from the reduction of cytochrome C within the assay buffer. The potency of the compounds was assessed by the concentration giving 50% inhibition (IC50) compared to the control response to fMLP.
row,SMILES,IC50
1,"O=C(NCCNC(=O)c1nc(NCC(c2ccccc2)c2ccccc2)c2ncn([C@@H]3O[C@H](CO)[C@@H](O)[C@H]3O)c2n1)NCCN1CCCCC1 [Example 3, 9-[(2R,3R,4S,5R)-3,4-Dihydroxy-5-(hydroxymethyl)tetrahydro-2-furanyl]-6-[(2,2-diphenylethyl)amino]-N-{2-[({[2-(1-piperidinyl)ethyl]amino}carbonyl)amino]ethyl}-9H-purine-2-carboxamide]",< 100 nM
2,CC(C)N(CCNC(=O)NCCNC(=O)c1nc(NCC(c2ccccc2)c2ccccc2)c2ncn([C@@H]3O[C@H](CO)[C@@H](O)[C@H]3O)c2n1)C(C)C [Example 4],< 100 nM
3,"CCNC(=O)[C@H]1O[C@@H](n2cnc3c(NCC(c4ccccc4)c4ccccc4)nc(C(=O)NCCNC(=O)NC4CCN(c5ccccn5)CC4)nc32)[C@H](O)[C@@H]1O [Example 8, 6-[(2,2-Diphenylethyl)amino]-9-{(2R,3R,4S,5S)-5-[(ethylamino)carbonyl]-3,4-dihydroxytetrahydro-2-furanyl}-N-{2-[({[1-(2-pyridinyl)-4-piperidinyl]amino}carbonyl)amino]ethyl}-9H-purine-2-carboxamide]",< 100 nM
4,CCNC(=O)[C@H]1O[C@@H](n2cnc3c(NCC(c4ccccc4)c4ccccc4)nc(C(=O)NCCNC(=O)NC4CCCCC4)nc32)[C@H](O)[C@@H]1O [Example 15],< 100 nM
5,CCNC(=O)[C@H]1O[C@@H](n2cnc3c(NCC(c4ccccc4)c4ccccc4)nc(C(=O)NCCCNC(=O)NCCN4CCCCC4)nc32)[C@H](O)[C@@H]1O [Example 18],< 100 nM
6,CCNC(=O)[C@H]1O[C@@H](n2cnc3c(NCC(c4ccccc4)c4ccccc4)nc(C(=O)N[C@H]4CC[C@H](NC(=O)NCCN5CCCCC5)CC4)nc32)[C@H](O)[C@@H]1O [Example 20],< 100 nM
7,CCNC(=O)[C@H]1O[C@@H](n2cnc3c(NCC(c4ccccc4)c4ccccc4)nc(C(=O)N[C@H]4CC[C@H](NC(=O)NCCN(C(C)C)C(C)C)CC4)nc32)[C@H](O)[C@@H]1O [Example 21],< 100 nM
8,CCNC(=O)[C@H]1O[C@@H](n2cnc3c(NCC(c4ccccc4)c4ccccc4)nc(C(=O)NC4CCN(C(=O)NCCN(C(C)C)C(C)C)CC4)nc32)[C@H](O)[C@@H]1O [Example 22],< 100 nM
9,CCNC(=O)[C@H]1O[C@@H](n2cnc3c(NCC(c4ccccc4)c4ccccc4)nc(C(=O)N[C@@H]4CCN(C(=O)NCCN(C(C)C)C(C)C)C4)nc32)[C@H](O)[C@@H]1O [Example 23],< 100 nM
10,CCNC(=O)[C@H]1O[C@@H](n2cnc3c(NCC(c4ccccc4)c4ccccc4)nc(C(=O)N4CCC(NC(=O)NCc5ccccc5)CC4)nc32)[C@H](O)[C@@H]1O [Example 25],< 100 nM
11,CCNC(=O)[C@H]1O[C@@H](n2cnc3c(NCC(c4ccccc4)c4ccccc4)nc(C(=O)N[C@@H]4CCN(C(=O)NC5CCN(c6ccccn6)CC5)C4)nc32)[C@H](O)[C@@H]1O [Example 27],< 100 nM
12,CCNC(=O)[C@H]1O[C@@H](n2cnc3c(NCC(c4ccccc4)c4ccccc4)nc(C(=O)N4CC[C@@H](NC(=O)NCCN(C(C)C)C(C)C)C4)nc32)[C@H](O)[C@@H]1O [Example 28],< 100 nM
13,CCNC(=O)[C@H]1O[C@@H](n2cnc3c(NCC(c4ccccc4)c4ccccc4)nc(C(=O)N4CC[C@H](NC(=O)NCCN(C(C)C)C(C)C)C4)nc32)[C@H](O)[C@@H]1O [Example 29],< 100 nM
14,"CCNC(=O)[C@H]1O[C@@H](n2cnc3c(NCC(c4cccc(C)c4)c4cccc(C)c4)nc(C(=O)NCCNC(=O)NCCN(C(C)C)C(C)C)nc32)[C@H](O)[C@@H]1O [Example 30, 6-{[2,2-Bis(3-methylphenyl)ethyl]amino}-N-{2-[({[2-(diisopropylamino)ethyl]amino}carbonyl)-amino]ethyl}-9-{(2R,3R,4S,5S)-5-[(ethylamino)carbonyl]-3,4-dihydroxytetrahydro-2-furanyl}-9H-purine-2-carboxamide]",< 100 nM
15,CCNC(=O)[C@H]1O[C@@H](n2cnc3c(NCC(c4cccc(Cl)c4)c4cccc(Cl)c4)nc(C(=O)NCCNC(=O)NCCN(C(C)C)C(C)C)nc32)[C@H](O)[C@@H]1O [Example 31],< 100 nM
16,"CCNC(=O)[C@H]1O[C@@H](n2cnc3c(NCC(c4cccc(Cl)c4)c4cccc(Cl)c4)nc(C(=O)NCCNC(=O)NCCN4CCCCC4)nc32)[C@H](O)[C@@H]1O [Example 32, 6-{[2,2-Bis(3-chlorophenyl)ethyl]amino}-9-{(2R,3R,4S,5S)-5-[(ethylamino)carbonyl]-3,4-dihydroxytetrahydro-2-furanyl}-N-{2-[({[2-(1-piperidinyl)ethyl]amino}carbonyl)amino]ethyl}-9H-purine-2-carboxamide]",< 100 nM
17,CCNC(=O)[C@H]1O[C@@H](n2cnc3c(NCC(c4cccc(C)c4)c4cccc(C)c4)nc(C(=O)NCCNC(=O)NCCN4CCCCC4)nc32)[C@H](O)[C@@H]1O [Example 33],< 100 nM

# The remaining lines, values ahead:
row,IC50,SMILES
1,< 100 nM,"CCNC(=O)[C@H]1O[C@@H](n2cnc3c(NCC(c4ccccc4)c4ccccc4)nc(C(=O)NCCNC(=O)NCCN4CCCCC4)nc32)[C@H](O)[C@@H]1O [Example 1, 6-[(2,2-Diphenylethyl)amino]-9-{(2R,3R,4S,5S)-5-[(ethylamino)carbonyl]-3,4-dihydroxytetrahydro-2-furanyl}-N-{2-[({[2-(1-piperidinyl)ethyl]amino}carbonyl)amino]ethyl}-9H-purine-2-carboxamide]"
2,< 100 nM,CCNC(=O)[C@H]1O[C@@H](n2cnc3c(NCC(c4ccccc4)c4ccccc4)nc(C(=O)NCCNC(=O)NCCN(C(C)C)C(C)C)nc32)[C@H](O)[C@@H]1O [Example 2]
3,< 100 nM,"CCNC(=O)[C@H]1O[C@@H](n2cnc3c(NCC(c4ccccc4)c4ccccc4)nc(C(=O)NCCNC(=O)NCCN4CCC(C(C)C)CC4)nc32)[C@H](O)[C@@H]1O [Example 5, 6-[(2,2-Diphenylethyl)amino]-9-{(2R,3R,4S,5S)-5-[(ethylamino)carbonyl]-3,4-dihydroxytetrahydro-2-furanyl}-N-{2-[({[2-(4-isopropyl-1-piperidinyl)ethyl]amino}carbonyl)amino]ethyl}-9H-purine-2-carboxamide]"
4,< 100 nM,"CCNC(=O)[C@H]1O[C@@H](n2cnc3c(NCC(c4ccccc4)c4ccccc4)nc(C(=O)NCCNC(=O)NCCN(C(C)C)C4CCCC4)nc32)[C@H](O)[C@@H]1O [Example 6, N-(2-{[({2-[Cycopentyl(isopropyl)amino]ethyl}amino)carbonyl]amino}ethyl)-6-[(2,2-diphenylethyl)amino]-9-{(2R,3R,4S,5S)-5-[(ethylamino)carbonyl]-3,4-dihydroxytetrahydro-2-furanyl}-9H-purine-2-carboxamide]"
5,< 100 nM,"CCNC(=O)[C@H]1O[C@@H](n2cnc3c(NCC(c4ccccc4)c4ccccc4)nc(C(=O)NCCNC(=O)NCCN(C(C)C)C4CCCCC4)nc32)[C@H](O)[C@@H]1O [Example 7, N-(2-{[({2-[Cyclohexyl(isopropyl)amino]ethyl}amino)carbonyl]amino}ethyl)-6-[(2,2-diphenylethyl)amino]-9-{(2R,3R,4S,5S)-5-[(ethylamino)carbonyl]-3,4-dihydroxytetrahydro-2-furanyl}-9H-purine-2carboxamide]"
6,< 100 nM,CCCCN(CCCC)CCNC(=O)NCCNC(=O)c1nc(NCC(c2ccccc2)c2ccccc2)c2ncn([C@@H]3O[C@H](C(=O)NCC)[C@@H](O)[C@H]3O)c2n1 [Example 9]
7,< 100 nM,CCNC(=O)[C@H]1O[C@@H](n2cnc3c(NCC(c4ccccc4)c4ccccc4)nc(C(=O)NCCNC(=O)NC4CCN(Cc5ccccc5)CC4)nc32)[C@H](O)[C@@H]1O [Example 10]
8,< 100 nM,CCNC(=O)[C@H]1O[C@@H](n2cnc3c(NCC(c4ccccc4)c4ccccc4)nc(C(=O)NCCNC(=O)NCCN(Cc4ccccc4)C(C)C)nc32)[C@H](O)[C@@H]1O [Example 11]
9,< 100 nM,CCNC(=O)[C@H]1O[C@@H](n2cnc3c(NCC(c4ccccc4)c4ccccc4)nc(C(=O)NCCNC(=O)NCC4CCN(Cc5ccccc5)CC4)nc32)[C@H](O)[C@@H]1O [Example 12]
10,< 100 nM,CCNC(=O)[C@H]1O[C@@H](n2cnc3c(NCC(c4ccccc4)c4ccccc4)nc(C(=O)NCCNC(=O)NCc4ccccc4)nc32)[C@H](O)[C@@H]1O [Example 13]
11,< 100 nM,CCNC(=O)[C@H]1O[C@@H](n2cnc3c(NCC(c4ccccc4)c4ccccc4)nc(C(=O)NCCNC(=O)NCCc4ccccc4)nc32)[C@H](O)[C@@H]1O [Example 14]
12,< 100 nM,CCNC(=O)[C@H]1O[C@@H](n2cnc3c(NCC(c4ccccc4)c4ccccc4)nc(C(=O)NCCNC(=O)NCCN4CCc5ccccc5C4)nc32)[C@H](O)[C@@H]1O [Example 16]
13,< 100 nM,CCNC(=O)[C@H]1O[C@@H](n2cnc3c(NCC(c4ccccc4)c4ccccc4)nc(C(=O)NCCCNC(=O)NCCN(C(C)C)C(C)C)nc32)[C@H](O)[C@@H]1O [Example 19]
14,< 100 nM,CCNC(=O)[C@H]1O[C@@H](n2cnc3c(NCC(c4ccccc4)c4ccccc4)nc(C(=O)N[C@@H]4CCN(C(=O)NCc5ccccc5)C4)nc32)[C@H](O)[C@@H]1O [Example 24]
15,< 100 nM,CCNC(=O)[C@H]1O[C@@H](n2cnc3c(NCC(c4ccccc4)c4ccccc4)nc(C(=O)N[C@@H]4CCN(C(=O)NCCc5ccccc5)C4)nc32)[C@H](O)[C@@H]1O [Example 26]
16,< 100 nM,"CCNC(=O)[C@H]1O[C@@H](n2cnc3c(NCC(c4ccccc4)c4ccccc4)nc(C(=O)NCCNC(=O)NCc4ccc(C(=O)O)cc4)nc32)[C@H](O)[C@@H]1O [Example 34, 4-[({[(2-{[(6-[(2,2-diphenylethyl)amino]-9-{(2R,3R,4S,5S)-5-[(ethylamino)carbonyl]-3,4-dihydroxytetrahydro-2-furanyl}-9H-purine-2-yl)carbonyl]amino}ethyl)amino]carbonyl}-amino)methyl]benzoic acid]"

# Source: patent US6753322B2, “2-aminocarbonyl-9H-purine derivatives” (Pfizer Inc, priority 2000, dated 2004)
